Assay results: ChEMBL document CHEMBL1158861, “Zanhasaponins A and B, antiphospholipase A2 saponins from an antiinflammatory extract of Zanha africana root bark” (J Nat Prod, 1997)

Assays:
Mus musculus [1] = species on record: Mus musculus; test: Effect on oxazolone-induced delayed type hypersensitivity in Swiss mouse assessed as reduction in ear thickness at 0.05 mg/ear after 102 hrs; type: functional; set-up: scale not given: the % may be the effect or the level left
Mus musculus [2] = species on record: Mus musculus; test: Effect on oxazolone-induced delayed type hypersensitivity in Swiss mouse assessed as reduction in ear thickness at 0.05 mg/ear after 48 hrs; type: functional; set-up: scale not given: the % may be the effect or the level left
Mus musculus [3] = species on record: Mus musculus; test: Effect on oxazolone-induced delayed type hypersensitivity in Swiss mouse assessed as reduction in ear thickness at 0.05 mg/ear after 72 hrs; type: functional; set-up: scale not given: the % may be the effect or the level left
Mus musculus [4] = species on record: Mus musculus; test: Effect on oxazolone-induced delayed type hypersensitivity in Swiss mouse assessed as reduction in ear thickness at 0.05 mg/ear after 96 hrs; type: functional; set-up: scale not given: the % may be the effect or the level left
Mus musculus [5] = test: Antiinflammatory activity against TPA-induced ear edema in Swiss mouse assessed as reduction in ear thickness at 0.05 mg/ear after 10 days; type: functional; set-up: scale not given: the % may be the effect or the level left
Mus musculus [6] = species on record: Mus musculus; test: Effect on oxazolone-induced delayed type hypersensitivity in Swiss mouse assessed as reduction in ear thickness at 0.05 mg/ear after 24 hrs; type: functional; set-up: scale not given: the % may be the effect or the level left
[7] = molecular target: Acidic phospholipase A2 2 (Naja naja, UniProt P15445); test: Inhibition of Naja Naja PLA2
Sequence of Acidic phospholipase A2 2 (P15445 whole entry): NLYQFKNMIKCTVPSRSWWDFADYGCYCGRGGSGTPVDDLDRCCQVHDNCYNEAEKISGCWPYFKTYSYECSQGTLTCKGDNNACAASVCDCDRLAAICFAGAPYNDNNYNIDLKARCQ

Mus musculus [8] = test: Antiinflammatory activity against Arachidonic acid-induced ear edema in Swiss mouse assessed as reduction in ear thickness at 2 mg/ear; type: functional; set-up: scale not given: the % may be the effect or the level left
[9] = molecular target: Acidic phospholipase A2 2 (Naja naja) (UniProt P15445); test: Inhibition of Naja Naja PLA2 at […]
Sequence of Acidic phospholipase A2 2 (Naja naja) (P15445 whole entry): as above

[10] = molecular target: Acidic phospholipase A2 2 (Naja naja) (UniProt P15445); details: 1.3 nM
Description: Inhibition of Naja Naja PLA2 at 1.3 nM

C[C@@H]1C[C@H]2[C@@H]3CCC4=CC(=O)C=C[C@]4(C)[C@@]3(F)[C@@H](O)C[C@]2(C)[C@@]1(O)C(=O)CO [DEXAMETHASONE]
Activity (Mus musculus [1]): 84% | Activity (Mus musculus [2]): 89% | Activity (Mus musculus [3]): 93% | Activity (Mus musculus [4]): 81% | Activity (Mus musculus [5]): 81% | Activity (Mus musculus [6]): 76%

C[C@@H]1O[C@@H](O[C@H]2[C@H](OC(=O)[C@]34CCC(C)(C)C[C@H]3C3=CC[C@@H]5[C@@]6(C)C[C@H](O)[C@H](O[C@@H]7O[C@H](C(=O)O)[C@@H](O)[C@H](O)[C@H]7O)[C@@](C)(C(=O)O)[C@@H]6CC[C@@]5(C)[C@]3(C)C[C@H]4O)O[C@@H](C)[C@H](O)[C@H]2O)[C@H](O[C@@H]2OC[C@@H](O)[C@H](O)[C@H]2O)[C@H](O)[C@H]1O [ZANHASAPONIN B]
IC50 [7]: 440 µM

CC(Cc1ccc(O)c(O)c1)C(C)Cc1ccc(O)c(O)c1 (configuration not stated) [NORDIHYDROGUAIARETIC ACID]
Activity (Mus musculus [8]): 50%

C[C@@H]1O[C@@H](O[C@H]2[C@H](OC(=O)[C@]34CCC(C)(C)C[C@H]3C3=CC[C@@H]5[C@@]6(C)C[C@H](O)[C@H](O[C@@H]7O[C@H](C(=O)O)[C@@H](O)[C@H](O)[C@H]7O)[C@@](C)(C(=O)O)[C@@H]6CC[C@@]5(C)[C@]3(C)C[C@H]4O)O[C@@H](C)[C@H](O)[C@H]2O)[C@H](O[C@@H]2OC[C@@H](O)[C@H](O[C@@H]3OC[C@@H](O)[C@H](O)[C@H]3O)[C@H]2O)[C@H](O)[C@H]1O
inhibition [9]: 30%

CO[C@H]1[C@H](O)[C@@H](O)[C@H](O)[C@H](O)[C@H]1O
inhibition [10]: 45%

C[C@@H]1O[C@@H](O[C@H]2[C@H](OC(=O)[C@]34CCC(C)(C)C[C@H]3C3=CC[C@@H]5[C@@]6(C)C[C@H](O)[C@H](O[C@@H]7O[C@H](C(=O)O)[C@@H](O)[C@H](O)[C@H]7O)[C@@](C)(C(=O)O)[C@@H]6CC[C@@]5(C)[C@]3(C)C[C@H]4O)O[C@@H](C)[C@H](O)[C@H]2O)[C@H](O)[C@H](O)[C@H]1O [ZANHASAPONIN A]
IC50 [7]: 470 µM

CO[C@H]1[C@H](O)[C@@H](O)[C@@H](O)[C@H](O)[C@@H]1O [METHYLINOSITOL]
IC50 [7]: 1920 µM
